Values of other authors in PubChem BioAssay AID1259409 (Chemical Carcinogenesis Research Information System (CCRIS), 2018).

Test system: rodent chemically induced tumor inhibition, incidence and multiplicity
Experiment: CCRIS tumor inhibitor studies

For `C[C@@H]1O[C@@H](OC[C@H]2O[C@@H](Oc3c(-c4ccc(O)c(O)c4)oc4cc(O)cc(O)c4c3=O)[C@H](O)[C@@H](O)[C@@H]2O)[C@H](O)[C@H](O)[C@H]1O`, the “tumour outcome (control, treated, inhibition, significance)” value (Carcinogen: 7,12-DIMETHYLBENZ[A]ANTHRACENE, 57-97-6, Dose [Inhibitor]: 0, 0.2 ML OF A 1% SOLUTION 1/D FOR 2 WK APPLIED 5 MIN POST EACH CARCINOGEN DOSE THEN 1/D FOR 4 WK DURING PROMOTION STAGE, Route [Inhibitor]: DERMAL, Species: MOUSE, Strain/Sex: SWISS/MALE, Target Tissue: Type of Lesion: SKIN: PAPILLOMA, Dose [Carcinogen]: 0.2 ML OF A 0.24% SOLUTION IN DMSO 1/D FOR 2 WK, Promoter: CROTON OIL, 8001-28-3) is listed as 23/23 (100%), 14/24 (58%), 42%, not calculated, the “tumour outcome (control, treated, inhibition, significance)” value (Carcinogen: 7,12-DIMETHYLBENZ[A]ANTHRACENE, 57-97-6, Dose [Inhibitor]: 0, 0.2 ML OF A 1% SOLUTION 1/D FOR 2 WK APPLIED 5 MIN PRIOR TO EACH CARCINOGEN DOSE (STUDY DURATION: 20 WK), Route [Inhibitor]: DERMAL, Species: MOUSE, Strain/Sex: SWISS/MALE, Target Tissue: Type of Lesion: SKIN: PAPILLOMA, Dose [Carcinogen]: 0.2 ML OF A 0.24% SOLUTION IN DMSO 1/D FOR 2 WK, Promoter: CROTON OIL, 8001-28-3) is listed as 23/23 (100%), 21/23 (91%), 9%, not calculated and the “tumour outcome (control, treated, inhibition, significance)” value (Carcinogen: AZOXYMETHANE, 25843-45-2, Dose [Inhibitor]: 0, 1% IN DIET FOR DURATION OF STUDY (STUDY DURATION: 48 WK), Route [Inhibitor]: ORAL, Species: MOUSE, Strain/Sex: CF-1/FEMALE, Target Tissue: Type of Lesion: COLON: TUMOR, Dose [Carcinogen]: 10 MG/KG BW 3 TIMES, Promoter: NONE USED) is listed as 8/32 (25%), 9/35 (26%), -4%, not significant. For the same molecule, the “tumour outcome (control, treated, inhibition, significance)” value (Carcinogen: AZOXYMETHANE, 25843-45-2, Dose [Inhibitor]: 0, 4% IN DIET FOR DURATION OF STUDY (STUDY DURATION: 48 WK), Route [Inhibitor]: ORAL, Species: MOUSE, Strain/Sex: CF-1/FEMALE, Target Tissue: Type of Lesion: COLON: TUMOR, Dose [Carcinogen]: 10 MG/KG BW 3 TIMES, Promoter: NONE USED) was 8/32 (25%), 3/31 (10%), 60%, not significant.

For `O=[Se](=O)(O)O`, the “tumour outcome (control, treated, inhibition, significance)” value (Carcinogen: 7,12-DIMETHYLBENZ[A]ANTHRACENE, 57-97-6, Dose [Inhibitor]: 0, 0.2 PPM IN DIET BEGINNING 3 D PRIOR TO CARCINOGEN DOSE AND CONTINUING FOR 8 MO (STUDY DURATION: 8 MO), Route [Inhibitor]: ORAL, Species: MOUSE, Strain/Sex: BALB/FEMALE, Target Tissue: Type of Lesion: MAMMARY GLAND: ADENOCARCINOMA, Dose [Carcinogen]: 1 MG/WK FOR 6 WK, Promoter: NONE USED) is listed as 12/31 (39%), 7/24 (29%), 26%, not calculated and the “tumour outcome (control, treated, inhibition, significance)” value (Carcinogen: 7,12-DIMETHYLBENZ[A]ANTHRACENE, 57-97-6, Dose [Inhibitor]: 0, 2 PPM IN DIET BEGINNING 3 D PRIOR TO CARCINOGEN DOSE AND CONTINUING FOR 8 MO (STUDY DURATION: 8 MO), Route [Inhibitor]: ORAL, Species: MOUSE, Strain/Sex: BALB/FEMALE, Target Tissue: Type of Lesion: MAMMARY GLAND: ADENOCARCINOMA, Dose [Carcinogen]: 1 MG/WK FOR 6 WK, Promoter: NONE USED) is listed as 12/31 (39%), 2/23 (9%), 77%, p<0.08.

For `CCS(=O)(=O)Nc1ncc(C(F)(F)F)cc1NC(=O)C1CCCCC1`, the “tumour outcome (control, treated, inhibition, significance)” value (Carcinogen: N-NITROSOBIS(2-OXOPROPYL)AMINE [60599-38-4], Dose [Inhibitor]: 200 PPM FOR 16 WK BEGINNING 1 WK POST CHOLECYSTODUOODENOSTOMY AND LIGATION OF DISTAL END OF COMMON DUCT (STUDY DURATION:, Route [Inhibitor]: ORAL, Species: HAMSTER, Strain/Sex: SYRIAN/FEMALE, Target Tissue: Type of Lesion: EXTRAHEPATIC BILE DUCT: ADENOCARCINOMA, Dose [Carcinogen]: 10 MG/KG BW 1X/WK FOR 10 WK BEGINNING 1 WK POST CHOLECYSTODUODENOSTOMY AND LIGATION OF DISTAL END OF COMMON DUCT (STUDY, Promoter: NONE) is given as 14/26 (54%), 2/15 (13%), 76%, p<0.05, the “tumour outcome (control, treated, inhibition, significance)” value (Carcinogen: N-NITROSOBIS(2-OXOPROPYL)AMINE [60599-38-4], Dose [Inhibitor]: 200 PPM FOR 16 WK BEGINNING 1 WK POST CHOLECYSTODUOODENOSTOMY AND LIGATION OF DISTAL END OF COMMON DUCT (STUDY DURATION:, Route [Inhibitor]: ORAL, Species: HAMSTER, Strain/Sex: SYRIAN/FEMALE, Target Tissue: Type of Lesion: GALL BLADDER: ADENOCARCINOMA, Dose [Carcinogen]: 10 MG/KG BW 1X/WK FOR 10 WK BEGINNING 1 WK POST CHOLECYSTODUOODENOSTOMY AND LIGATION OF DISTAL END OF COMMON DUCT (STUDY, Promoter: NONE) is given as 18/26 (69%), 3/15 (20%), 71%, p<0.01 and the “tumour outcome (control, treated, inhibition, significance)” value (Carcinogen: N-NITROSOBIS(2-OXOPROPYL)AMINE [60599-38-4], Dose [Inhibitor]: 200 PPM FOR 16 WK BEGINNING 1 WK POST CHOLECYSTODUOODENOSTOMY AND LIGATION OF DISTAL END OF COMMON DUCT (STUDY DURATION:, Route [Inhibitor]: ORAL, Species: HAMSTER, Strain/Sex: SYRIAN/FEMALE, Target Tissue: Type of Lesion: INTRAHEPATIC BILE DUCT: ADENOCARCINOMA, Dose [Carcinogen]: 10 MG/KG BW 1X/WK FOR 10 WK BEGINNING 1 WK POST CHOLECYSTODUODENOSTOMY AND LIGATION OF DISTAL END OF COMMON DUCT (STUDY, Promoter: NONE) is given as 14/26 (54%), 3/15 (20%), 63%, p<0.05.

For `COc1cc2c(cc1OC)[C@]1(O)C(=O)c3ccc4c(c3O[C@@H]1CO2)C=CC(C)(C)O4`, the “tumour outcome (control, treated, inhibition, significance)” value (Carcinogen: 7,12-DIMETHYLBENZ[A]ANTHRACENE, 57-97-6, Dose [Inhibitor]: 0, 85 NMOL 2/WK BEGINNING 1 WK POST CARCINOGEN DOSE (STUDY DURATION: 20 WK), Route [Inhibitor]: DERMAL, Species: MOUSE, Strain/Sex: ICR/FEMALE, Target Tissue: Type of Lesion: SKIN: PAPILLOMA, Dose [Carcinogen]: 390 NMOL, Promoter: 12-O-TETRADECANOYLPHORBOL-13-ACETATE, 16561-29-8) is listed as 100%, 40%, 60%, not calculated.

In the case of `CC(C)(O)/C=C/C(=O)[C@](C)(O)[C@H]1[C@H](O)C[C@@]2(C)[C@@H]3CC=C4[C@@H](C[C@H](O)[C@@H](O)C4(C)C)[C@]3(C)C(=O)C[C@]12C`, the “tumour outcome (control, treated, inhibition, significance)” value (Carcinogen: 7,12-DIMETHYLBENZ[A]ANTHRACENE, 57-97-6, Dose [Inhibitor]: 0, 85 NMOL IN 0.1 ML ACETONE APPLIED 1 HR PRIOR TO EACH PROMOTER DOSE 2/WK FOR 20 WK (STUDY DURATION: 21 WK), Route [Inhibitor]: DERMAL, Species: MOUSE, Strain/Sex: ICR/FEMALE, Target Tissue: Type of Lesion: SKIN: PAPILLOMA, Dose [Carcinogen]: 100 UG IN 0.1 ML ACETONE ONCE, Promoter: 12-O-TETRADECANOYLPHORBOL-13-ACETATE, 16561-29-8) is listed as 100%, 100%, 0%, not significant.

In the case of `c1cc2ccc3cccc4ccc(c1)c2c34`, the “tumour outcome (control, treated, inhibition, significance)” value (Carcinogen: BENZO[A]PYRENE, 50-32-8, Dose [Inhibitor]: 4 UG IN 0.1 ML ACETONE 3/WK ADMINISTERED SIMULTANEOUSLY WITH CARCINOGEN FOR DURATION OF STUDY (STUDY DURATION: 368 D), Route [Inhibitor]: DERMAL, Species: MOUSE, Strain/Sex: ICR/FEMALE, Target Tissue: Type of Lesion: SKIN: PAPILLOMA, Dose [Carcinogen]: 5 UG IN 0.1 ML ACETONE 3/WK FOR DURATION OF STUDY, Promoter: NONE USED) is listed as 14/50 (28%), 12/50 (24%), 14%, not calculated, the “tumour outcome (control, treated, inhibition, significance)” value (Carcinogen: BENZO[A]PYRENE, 50-32-8, Dose [Inhibitor]: 4 UG IN 0.1 ML ACETONE 3/WK ADMINISTERED SIMULTANEOUSLY WITH CARCINOGEN FOR DURATION OF STUDY (STUDY DURATION: 368 D), Route [Inhibitor]: DERMAL, Species: MOUSE, Strain/Sex: ICR/FEMALE, Target Tissue: Type of Lesion: SKIN: SQUAMOUS CARCINOMA, Dose [Carcinogen]: 5 UG IN 0.1 ML ACETONE 3/WK FOR DURATION OF STUDY, Promoter: NONE USED) is listed as 10/50 (20%), 6/50 (12%), 40%, not calculated and the “tumour outcome (control, treated, inhibition, significance)” value (Carcinogen: BENZO[A]PYRENE, 50-32-8, Dose [Inhibitor]: 12 UG IN 0.1 ML ACETONE 3/WK ADMINISTERED SIMULTANEOUSLY WITH CARCINOGEN FOR DURATION OF STUDY (STUDY DURATION: 368 D), Route [Inhibitor]: DERMAL, Species: MOUSE, Strain/Sex: ICR/FEMALE, Target Tissue: Type of Lesion: SKIN: PAPILLOMA, Dose [Carcinogen]: 5 UG IN 0.1 ML ACETONE 3/WK FOR DURATION OF STUDY, Promoter: NONE USED) is listed as 14/50 (28%), 26/50 (52%), -86%, not calculated. For the same molecule, the “tumour outcome (control, treated, inhibition, significance)” value (Carcinogen: BENZO[A]PYRENE, 50-32-8, Dose [Inhibitor]: 12 UG IN 0.1 ML ACETONE 3/WK ADMINISTERED SIMULTANEOUSLY WITH CARCINOGEN FOR DURATION OF STUDY (STUDY DURATION: 368 D), Route [Inhibitor]: DERMAL, Species: MOUSE, Strain/Sex: ICR/FEMALE, Target Tissue: Type of Lesion: SKIN: SQUAMOUS CARCINOMA, Dose [Carcinogen]: 5 UG IN 0.1 ML ACETONE 3/WK FOR DURATION OF STUDY, Promoter: NONE USED) was 10/50 (20%), 20/50 (40%), -100%, not calculated, the “tumour outcome (control, treated, inhibition, significance)” value (Carcinogen: BENZO[A]PYRENE, 50-32-8, Dose [Inhibitor]: 40 UG IN 0.1 ML ACETONE 3/WK ADMINISTERED SIMULTANEOUSLY WITH CARCINOGEN FOR DURATION OF STUDY (STUDY DURATION: 440 D), Route [Inhibitor]: DERMAL, Species: MOUSE, Strain/Sex: ICR/FEMALE, Target Tissue: Type of Lesion: SKIN: PAPILLOMA, Dose [Carcinogen]: 5 UG IN 0.1 ML ACETONE 3/WK FOR DURATION OF STUDY, Promoter: NONE USED) was 16/50 (32%), 35/50 (70%), -119%, not calculated and the “tumour outcome (control, treated, inhibition, significance)” value (Carcinogen: BENZO[A]PYRENE, 50-32-8, Dose [Inhibitor]: 40 UG IN 0.1 ML ACETONE 3/WK ADMINISTERED SIMULTANEOUSLY WITH CARCINOGEN FOR DURATION OF STUDY (STUDY DURATION: 440 D), Route [Inhibitor]: DERMAL, Species: MOUSE, Strain/Sex: ICR/FEMALE, Target Tissue: Type of Lesion: SKIN: SQUAMOUS CARCINOMA, Dose [Carcinogen]: 5 UG IN 0.1 ML ACETONE 3/WK FOR DURATION OF STUDY, Promoter: NONE USED) was 12/50 (24%), 26/50 (52%), -117%, not calculated.
